PubChem BioAssay (NCI)
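GI50 marks 50% less growth. Definition used: TGI = concentration required for complete inhibition of growth.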

How the values were obtained:
Assay in all cases: inhibition of tumour cell growth, NCI panel, 384-well format
[1] = tested on: 786-0 renal
[2] = tested on: A498 renal
[3] = tested on: A549 NSCLC
[4] = tested on: ACHN renal
[5] = tested on: BT-549 breast
[6] = tested on: CAKI-1 renal
[7] = tested on: CCRF-CEM leukemia
[8] = tested on: COLO 205 colon
[9] = tested on: DU-145 prostate
[10] = tested on: EKVX NSCLC
[11] = tested on: HCC-2998 colon
[12] = tested on: HCT-116 colon
[13] = tested on: HCT-15 colon
[14] = tested on: HL-60(TB) leukemia
[15] = tested on: HOP-62 NSCLC
[16] = tested on: HOP-92 NSCLC
[17] = tested on: HS 578T breast
[18] = tested on: HT29 colon
[19] = tested on: IGROV1 ovarian
[20] = tested on: K-562 leukemia
[21] = tested on: KM12 colon
[22] = tested on: LOX IMVI melanoma
[23] = tested on: M14 melanoma
[24] = tested on: MALME-3M melanoma
[25] = tested on: MCF7 breast
[26] = tested on: MDA-MB-231 breast
[27] = tested on: MDA-MB-435 melanoma
[28] = tested on: MDA-MB-468 breast
[29] = tested on: MOLT-4 leukemia
[30] = tested on: NCI-H226 lung
[31] = tested on: NCI-H23 lung
[32] = tested on: NCI-H322M lung
[33] = tested on: NCI-H460 NSCLC
[34] = tested on: NCI-H522 lung
[35] = tested on: NCI/ADR-RES ovarian
[36] = tested on: OVCAR-3 ovarian
[37] = tested on: OVCAR-4 ovarian
[38] = tested on: OVCAR-8 ovarian
[39] = tested on: PC-3 prostate
[40] = tested on: RPMI-8226 leukemia
[41] = tested on: RXF 393 renal
[42] = tested on: SF-268 CNS
[43] = tested on: SF-295 CNS
[44] = tested on: SF-539 CNS
[45] = tested on: SK-MEL-28 melanoma
[46] = tested on: SK-MEL-5 melanoma
[47] = tested on: SK-OV-3 ovarian
[48] = tested on: SN12C renal
[49] = tested on: SNB-19 CNS
[50] = tested on: SNB-75 CNS
[51] = tested on: SR leukemia
[52] = tested on: SW-620 colon
[53] = tested on: T-47D breast
[54] = tested on: TK-10 renal
[55] = tested on: U251 glioblastoma
[56] = tested on: UACC-257 melanoma
[57] = tested on: UACC-62 melanoma
[58] = tested on: UO-31 renal

## CN(C)C(=O)[C@H](O)[C@H](Cc1ccccc1)NC(=O)c1cc2cc(Cl)ccc2[nH]1
[1]
  GI50: 20.5 µM
  TGI: 51.1 µM
[2]
  GI50: 26.7 µM
  TGI: 61 µM
[3]
  GI50: 27.3 µM
  TGI: 77 µM
[4]
  GI50: 28.4 µM
  TGI: 74.3 µM
[5]
  GI50: 20.5 µM
  TGI: 47.8 µM
[6]
  GI50: 25.1 µM
  TGI: 77.8 µM
[7]
  GI50: 17.9 µM
  TGI: 32.7 µM
[8]
  GI50: 41.3 µM
  TGI: > 100 µM
[9]
  GI50: 30.7 µM
  TGI: 91.7 µM
[10]
  GI50: 32.7 µM
  TGI: 97.3 µM
[11]
  GI50: 15.4 µM
  TGI: 31.8 µM
[12]
  GI50: 22 µM
  TGI: 66.5 µM
[13]
  GI50: 27.5 µM
  TGI: 74.7 µM
[14]
  GI50: 16.6 µM
  TGI: 30.5 µM
[15]
  GI50: 22.6 µM
  TGI: 51.7 µM
[16]
  GI50: 26.9 µM
  TGI: 65.8 µM
[17]
  GI50: 25.6 µM
  TGI: 59.3 µM
[18]
  GI50: 21.8 µM
  TGI: 49.1 µM
[19]
  GI50: 25.8 µM
  TGI: 64.8 µM
[20]
  GI50: 20.2 µM
  TGI: 44.9 µM
[21]
  GI50: 20.8 µM
  TGI: 50.9 µM
[22]
  GI50: 20.3 µM
  TGI: 36.1 µM
[23]
  GI50: 23.4 µM
  TGI: 55.6 µM
[24]
  GI50: 21.2 µM
  TGI: 55.4 µM
[25]
  GI50: 17.8 µM
  TGI: 43 µM
[26]
  GI50: 27 µM
  TGI: > 100 µM
[27]
  GI50: 38.3 µM
  TGI: > 100 µM
[28]
  GI50: 19.1 µM
  TGI: 36.1 µM
[29]
  GI50: 14.4 µM
  TGI: 27.7 µM
[30]
  GI50: 23.1 µM
  TGI: 57.5 µM
[31]
  GI50: 28.1 µM
  TGI: 77.5 µM
[32]
  GI50: 28.1 µM
  TGI: 67.7 µM
[33]
  GI50: 19.2 µM
  TGI: 36.2 µM
[34]
  GI50: 22.6 µM
  TGI: 58.2 µM
[35]
  GI50: 27.3 µM
  TGI: 70.6 µM
[36]
  GI50: 16.5 µM
  TGI: 31.5 µM
[37]
  GI50: 32 µM
  TGI: 89.9 µM
[38]
  GI50: 36.4 µM
  TGI: > 100 µM
[39]
  GI50: 21.3 µM
  TGI: 46.7 µM
[40]
  GI50: 13.3 µM
  TGI: 26.3 µM
[41]
  GI50: 20.7 µM
  TGI: 54.8 µM
[42]
  GI50: 22.2 µM
  TGI: 50.2 µM
[43]
  GI50: 21.8 µM
  TGI: 44.2 µM
[44]
  GI50: 28.3 µM
  TGI: 72.3 µM
[45]
  GI50: 31.2 µM
  TGI: 88.4 µM
[46]
  GI50: 15.6 µM
  TGI: 29.4 µM
[47]
  GI50: 32.9 µM
  TGI: > 100 µM
[48]
  GI50: 25.9 µM
  TGI: 77 µM
[49]
  GI50: 34.8 µM
  TGI: > 100 µM
[50]
  GI50: 31.2 µM
  TGI: > 100 µM
[51]
  GI50: 19.5 µM
  TGI: 33.7 µM
[52]
  GI50: 25.3 µM
  TGI: 57.1 µM
[53]
  GI50: 26.9 µM
  TGI: 99.6 µM
[54]
  GI50: 25.1 µM
  TGI: 67.9 µM
[55]
  GI50: 32.7 µM
  TGI: 96.8 µM
[56]
  GI50: 20.5 µM
  TGI: 37 µM
[57]
  GI50: 18.4 µM
  TGI: 41 µM
[58]
  GI50: 31.1 µM
  TGI: 92 µM
